SMILES strings stand for the structures. “Also recorded” adds a separate entry of the source.

In data set [1] the target is T1, LINE1 reverse transcriptase (Homo sapiens, UniProt O00370). Put plainly: Transient artificial-intron Cis LINE1 reporter assay. The format is cell-based. More on the design: expressed in transfected cells. The following applies: HEK 293 cells; ratio of FLuc to RLuc reports LINE1 activity; read-out: IC50, inhibition of FLuc (FF/RR). The protocol:
Intron-disrupted Firefly luciferase (FLuc) expression cassettes were generated as described by Xie, Y. et al. “Characterization of L1 retrotransposition with high-throughput dual-luciferase assays,” Nucleic Acid Res. (2011) Vol. 39, No. 3, e16. In addition, the plasmid contained an intact Renilla luciferase (RLuc) expression cassette on the vector backbone, in order to normalize transfection efficiency and measure potential cell toxicity.
HEK 293 cells were seeded in 96-well plates at 1,000 cells/well in 55 μL and grown for 24 hours. Cells were transfected with FuGeneHD (Promega) following the manufacturer's protocol. Each well received 0.133 ng plasmid, 0.4 μL FuGeneHD reagent, and 4.5 μL GlutaMAX-I-supplemented Opti-MEM I reduced-serum medium (Invitrogen). Cells were simultaneously treated with test compound serially diluted starting at 100 μM in a 3-fold dilution dose response.
Luminescence was measured using the Dual-Glo Luciferase Assay System (Promega) following the manufacturer's instructions. The ratio between FLuc and RLuc gene expression was used to report LINE1 activity.

The target in data set [2] is T1, LINE1 reverse transcriptase. Put plainly: Stable artificial-intron Cis LINE1 reporter assay. The format is cell-based. More on the design: expressed in transfected cells. The following applies: HeLa L1 artificial-intron reporter cells, doxycycline induced, 72 h, Firefly luciferase; read-out: IC50, inhibition of LINE1 reverse transcriptase. From the text:
A stable HeLa Tet-On 3G (Takara, cat no 631183) cell line expressing a bi-directional inducible LINE1 construct was generated as described in Xie, Y. et al. “Cell division promotes efficient retrotransposition in a stable L1 reporter cell line,” Mobile DNA (2013) 4:10. Single cell clones were screened for high Luciferase expression and the highest expression Firefly expressing clone was chosen for compound testing.
Test compound was serially diluted in DMSO and spotted in 96-well plates. Subsequently the HeLa L1 artifical-intron reporter cells were plated into the compound-containing wells (8,000 cells/well), and the cells were induced for reporter expression with doxycycline (Sigma cat no D9891) at a final concentration of 500 ng/mL. Luminescence was measured 72 h after plating using the Dual-Glo Luciferase Assay System (Promega cat no E2940) following the manufacturer's instructions. The Firefly Luciferase activity was used to report LINE1 activity.
On the technique in general: Reporter assays use an easily measured gene product as a stand-in for the process of interest.

In the next data set the test system is Type 1 Interferon. Put plainly: Cellular assay for inhibiting IFN production in THP1 TREX1 KO cells. The class given is cell-based. The settings on record: THP1-Dual KO-TREX1 cells, six days of treatment, alone or with 1 μM 5-Aza-2'-Deoxycytidine; FIG. 2. The protocol:
THP1 Dual TREX1 KO cells were purchased from Invivogen.
Stock solution of censavudine was prepared in DMSO followed by a three-fold dilution in DMSO. Additional 50× dilution was prepared in cell culture media for each dilution. 10 μL of diluted censavudine was then added to a 96 well plate.
THP1-Dual™ KO-TREX1 cells were treated with either 1×PBS or 1 μM 5-Aza-2′-Deoxycytidine. 190 μL of the THP1-Dual™ KO-TREX1 cells from either treatment were added to each well of the 96-well plate containing censavudine titration at 50,000 cells/well. Cells were incubated at 37° C., 5% CO2 in a humidified incubator for six days. Cells treated with 1 μM 5-Aza-2′-Deoxycytidine were added at the same density as above and incubated at 37° C., 5% CO2 in a humidified incubator for six days. On day six, 25 μL of cell supernatant was transferred to a 96 well white-walled plate, followed by addition of 50 μL of QUANTI-LUC solution containing stabilizer to each well.

The subject of a further data set is IL-17A, IFN, TNF. Put plainly: Mouse MOG study: lymph node cell culture and CBA cytokine analysis. The class given is in vivo, C57BL mice. The protocol:
(§1) On day zero, four groups of six C57BL mice were immunized subcutaneously at 2 sites with 0.1 mL/site with MOG35-55/CFA (Hooke immunization kit). Dosing of mice started on day 0 and continued through day 11. The dosing schedule was:
(§2) The Vehicle used was 0.5% methylcellulose. Mice were dosed each day at approximately the same time each day. One day 11, 1 hour after receiving the last dose, plasma was collected, frozen and stored at −80° C. for analysis. At the end of the experiment, all mice were euthanized, and inguinal lymph nodes were collected and processed.
Lymph node cells from each group were set up in 96-well plates with 400k cells/well along with seven concentrations of antigen: 0, 0.07 μg/mL, 0.2 μg/mL, 0.7 μg/mL, 2.2 μg/mL, 6.6 μg/mL and 20.0 μg/mL. After 72 hours of culturing, the supernatants were collected and analyzed for IL-17A, IFN […] , and TNF using CBA kits (Becton-Dickinson).

The next data set relates to CD4+ T cells. Briefly: Mouse MOG study: BrdU cell proliferation assay on lymph node cells. The format is in vivo, C57BL mice. The protocol:
as §1, §2
A bromodeoxyuridine (BrdU) cell proliferation assay was run on some of the lymph node cells to determine if treatment of mice with censavudine altered the proliferation of CD4+ T cells in culture upon restimulation with antigen. Cultures of the cells were set up in 96-well plates, each using 400k cells/well along with six concentrations of antigen: 0, 0.2 μg/mL, 0.7 μg/mL, 2.2 μg/mL, 6.6 μg/mL and 20.0 μg/mL, each with duplicates. The cells were cultured for approximately 40 hours, then BrdU was added to all wells at a concentration of 3 μg/mL. The cells were cultured an additional 3 hours after the addition of BrdU. Cells were then collected, stained with anti-CD4 and anti-BrdU antibodies (as per Becton Dickinson's standard protocols for BrdU labeling) and analyzed.

Data set [3] has as its target T2, HERV-K reverse transcriptase (Homo sapiens, UniProt V9H0F6).
T2 construct: fused on or other part: C-terminal 8His tag
Put plainly: Homogeneous time-resolved fluorescence (HTRF) HERV-K RT assay. The settings on record: HERV-K reverse transcriptase (2-596)-8His protein, read-out: IC50, inhibition of HERV-K reverse transcriptase. The format is biochemical. The protocol:
The HERV-K reverse transcriptase homogeneous time-resolved fluorescence (HTRF) assay was performed in a 384-well format with HERV-K reverse transcriptase (2-596)-8His protein. Baculoviruses were created using Bac-to-Bac technology (Invitrogen). pFastBac donor plasmids containing HERV-K reverse transcriptase sequence (NCBI GenBank number AAC63291.1, J. Virology (1999) Vol. 73, No. 3, pp. 2365-2375) were transformed into DH10 Bac cells following the manufacturer's instructions. Recombinant bacmids were then isolated clonally and transfected into SF9 cells with lipofectin. HERV-K reverse transcriptase was expressed in the SF9 insect cells and then purified using immobilized metal affinity chromatography (IMAC) followed by size-exclusion chromatography (SEC). Test compound was serially diluted in DMSO and further diluted in the assay buffer (50 mM Tris-HCl, 50 mM KCl, 10 mM MgCl2, 10 mM DTT, pH 8.1) to achieve a final DMSO concentration of 1%. […] At the end of the incubation, fluorescence was read at ex/em=337/485 nm and ex/em=337/520 nm on an Envision 2104 plate reader (Perkin Elmer). The fluorescence ratio at 520/485 nm was used for the calculation. […] The IC50 was calculated by fitting the compound dose inhibition curve with a 4-parameter non-linear regression equation.

For data set [4], the target named is T1, LINE1 reverse transcriptase. Put plainly: Homogeneous time-resolved fluorescence (HTRF) LINE1 RT assay. The following applies: recombinant MBP-tagged LINE1 protein (238-1061), read-out: IC50, inhibition of LINE1 reverse transcriptase. The format is biochemical. More on the design: recombinant MBP-tagged LINE1 protein (238-1061); MBP; made in house. Here is the method: The LINE1 reverse transcriptase homogeneous time-resolved fluorescence (HTRF) assay was performed with recombinant MBP-tagged LINE1 protein (238-1061) (generated and purified according to procedures in Dai L. et al. BMC Biochemistry 2011; 12:18) in a 384-well format. Test compound was serially diluted in DMSO and further diluted in the assay buffer (50 mM Tris-HCl, 50 mM KCl, 10 mM MgCl2, 10 mM DTT, pH 8.1) to achieve a final DMSO concentration of 1%. The serially diluted compound was mixed with 64 ng/well of LINE1 enzyme, 5 nM of pre-annealed template/biotin-primer pair (synthesized at Generay Biotechnology), 10 nM of Fluorescein-12-dATP fluorescent probe (Perkin Elmer), and 1 μM dGTP/dCTP/dTTP (Thermo Fisher Scientific) in the assay buffer. The template/biotin-primer sequences were as follows:
After incubating at 25° C. for 60 minutes, the detection reagent (20 mM EDTA with streptavidin-terbium cryptate, Cisbio Bioassay) in the PPI buffer (Cisbio Bioassay) was added, and the mixture was incubated at 25° C. for 30 minutes. At the end of the incubation, fluorescence was read at ex/em=337/485 nm and ex/em=337/520 nm on an Envision 2104 plate reader (Perkin Elmer). The fluorescence ratio at 520/485 nm was used for the calculation. […] The IC50 was calculated by fitting the compound dose inhibition curve with a 4-parameter non-linear regression equation.
In general terms: TR-FRET usually uses a lanthanide donor and a delayed reading to cut background.

T2 sequence (V9H0F6 entry or part of it): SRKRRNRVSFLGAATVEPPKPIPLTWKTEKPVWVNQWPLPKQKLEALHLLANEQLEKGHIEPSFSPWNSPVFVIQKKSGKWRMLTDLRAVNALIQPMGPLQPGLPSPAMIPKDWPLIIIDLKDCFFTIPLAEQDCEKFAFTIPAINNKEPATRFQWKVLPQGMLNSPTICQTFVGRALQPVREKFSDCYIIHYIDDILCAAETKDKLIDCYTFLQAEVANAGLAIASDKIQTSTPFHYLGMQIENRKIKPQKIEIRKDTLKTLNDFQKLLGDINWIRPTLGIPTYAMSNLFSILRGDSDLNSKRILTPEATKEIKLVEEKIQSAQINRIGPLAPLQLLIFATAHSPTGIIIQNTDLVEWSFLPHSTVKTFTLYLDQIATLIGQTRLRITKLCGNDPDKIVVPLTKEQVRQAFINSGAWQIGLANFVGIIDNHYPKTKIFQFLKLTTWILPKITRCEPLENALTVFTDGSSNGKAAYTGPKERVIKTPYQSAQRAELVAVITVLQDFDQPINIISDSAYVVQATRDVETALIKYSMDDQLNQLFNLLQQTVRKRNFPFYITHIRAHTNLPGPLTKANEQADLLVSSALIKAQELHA
Method for THP1-Dual KO-TREX1 cells: The THP1-Dual™ KO-TREX1 cells were cultured in RPMI 1640, 10% heat-inactivated fetal bovine serum, 25 mM HEPES, 10 μg/mL Blasticidin, and 100 μg/mL Zeocin. THP1-Dual™ KO-TREX1 cells were treated with a dose titration of censavudine alone or in the presence of 1 μM 5-Aza-2′-Deoxycytidine (Sigma, cat #189825). Type 1 Interferon and cell viability were assessed after six days of treatment.
The remaining cells were assessed for cell viability by adding 25 μL of CellTiter-Glo (Promega, G9683) solution to each well, placed on a shaker for 10 minutes at room temperature. Luminescence was detected on a plate reader, according to manufacturer's instructions.

`C#C[C@@]1(CO)C=C[C@H](n2cc(C)c(=O)[nH]c2=O)O1` [drawing 16]: the IC50 in data set [1] worked out at 0.06 µM; in data set [2] it was 0.13 µM.
For `C#C[C@@]1(CO)C=C[C@H](n2cc(C)c(=O)[nH]c2=O)O1` [censavudine, 1-[(2R,5R)-5-ethynyl-5-(hydroxymethyl)-2H-furan-2-yl]-5-methylpyrimidine-2,4-dione], in the data set with Type 1 Interferon, the “interferon (Type 1 Interferon reporter)” value was “significant reduction of interferon; also recorded: inhibition of interferon”. The IL-17A level result in the data set with IL-17A, IFN, TNF (MOG35-55/CFA immunized mice, QD p.o. day 0-11, lymph node cells restimulated with antigen 72 h, FIG. 4A) was “reduce levels; also recorded: reduction of IL17A”. Moreover, the TNF level entry in the data set on IL-17A, IFN, TNF (MOG35-55/CFA immunized mice, QD p.o. day 0-11, lymph node cells restimulated with antigen 72 h, FIG. 4B) is given as “reduce levels; also recorded: reduction of TNF”. In addition, the IFN level result with IL-17A, IFN, TNF (MOG35-55/CFA immunized mice, QD p.o. day 0-11, lymph node cells restimulated with antigen 72 h, FIG. 4C) is given as “reduce levels; also recorded: reduction of IFN”. Moreover, the “proinflammatory cytokines (IL17A, TNF, IFN), effect” value in the data set with IL-17A, IFN, TNF (all doses (8, 40, 200 mg/kg QD p.o.), FIGS. 4A-4C) was “some effect”. In the data set with IL-17A, IFN, TNF (doses of 40 mg/kg and 200 mg/kg, FIGS. 4A-4C), the “proinflammatory cytokines (IL17A, TNF, IFN), response” value is “best responses”. Besides, in the data set with CD4+ T cells (MOG immunized mice, QD p.o. day 0-11, lymph node cells restimulated with antigen, BrdU, FIG. 3A), the T cell proliferation result is “reduce levels; also recorded: reduction of T-cell proliferation”. Also, in the data set on CD4+ T cells (MOG immunized mice, various doses QD p.o., FIG. 3B), the “Th17 (T17)” value is listed as “reduce levels; also recorded: reduction of the cytokine Th17”. In addition, the “Th1 (T1)” value in the data set with CD4+ T cells (MOG immunized mice, various doses QD p.o., FIG. 3C) was “reduce levels; also recorded: reduction of the cytokine Th1”. Further, in the data set with CD4+ T cells (doses between 40 mg/kg and 200 mg/kg, FIGS. 3A-3C), the “autoreactive T-cell responses” value is “significant reduction”. Moreover, the “cell viability / cell death” value with THP1-Dual KO-TREX1 cells was “does not lead to cell death”.
`C#C[C@@]1(COP(=O)(O)OP(=O)(O)OP(=O)(O)O)C=C[C@H](n2cc(C)c(=O)[nH]c2=O)O1`: the IC50 turned out to be 6.4 µM in data set [3] and 0.07 µM in data set [4].

The record behind these values is patent US20250170158A1, “METHODS OF TREATING MEDICAL CONDITIONS USING CENSAVUDINE OR A RELATED COMPOUND” (ROME Therapeutics, Inc., priority 2022, published 2025).
